#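 Abbreviation: GI50, concentration required for 50% inhibition of growth. TGI denotes the concentration required for complete inhibition of growth.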
# Tests used:
# Experiment in all cases: NCI-60 cell line screen, 384-well format
# NCI-H322M lung = test system: NCI-H322M lung
# OVCAR-4 ovarian = test system: OVCAR-4 ovarian
# MDA-MB-231 breast = test system: MDA-MB-231 breast
# MCF7 breast = test system: MCF7 breast
# OVCAR-3 ovarian = test system: OVCAR-3 ovarian
# OVCAR-8 ovarian = test system: OVCAR-8 ovarian
# KM12 colon = test system: KM12 colon
# NCI-H23 lung = test system: NCI-H23 lung
# LOX IMVI melanoma = test system: LOX IMVI melanoma
# COLO 205 colon = test system: COLO 205 colon
# DU-145 prostate = test system: DU-145 prostate
# HT29 colon = test system: HT29 colon
# CCRF-CEM leukemia = test system: CCRF-CEM leukemia
# UACC-257 melanoma = test system: UACC-257 melanoma
# HOP-62 NSCLC = test system: HOP-62 NSCLC
# SF-539 CNS = test system: SF-539 CNS
# NCI-H522 lung = test system: NCI-H522 lung
# SNB-75 CNS = test system: SNB-75 CNS
# HCT-15 colon = test system: HCT-15 colon
# SK-OV-3 ovarian = test system: SK-OV-3 ovarian
# PC-3 prostate = test system: PC-3 prostate
# M14 melanoma = test system: M14 melanoma
# SN12C renal = test system: SN12C renal
# 786-0 renal = test system: 786-0 renal
# TK-10 renal = test system: TK-10 renal
# MALME-3M melanoma = test system: MALME-3M melanoma
# SNB-19 CNS = test system: SNB-19 CNS
# HOP-92 NSCLC = test system: HOP-92 NSCLC
# SR leukemia = test system: SR leukemia
structure (smiles),measurement,setting,value
C[C@@H]1CCc2ncc(F)cc2[C@H]2CCCN2c2ccn3ncc(c3n2)C(=O)N1,TGI,NCI-H322M lung,> 100 µM
same,GI50,OVCAR-4 ovarian,10.3 µM
same,TGI,OVCAR-4 ovarian,96.2 µM
same,GI50,MDA-MB-231 breast,18.1 µM
same,TGI,MDA-MB-231 breast,> 100 µM
same,GI50,MCF7 breast,18.5 µM
same,TGI,MCF7 breast,> 100 µM
same,GI50,OVCAR-3 ovarian,48.4 µM
same,TGI,OVCAR-3 ovarian,> 100 µM
same,GI50,OVCAR-8 ovarian,> 100 µM
same,TGI,OVCAR-8 ovarian,> 100 µM
same,TGI,KM12 colon,> 100 µM
same,GI50,NCI-H23 lung,93.8 µM
same,TGI,NCI-H23 lung,> 100 µM
same,GI50,LOX IMVI melanoma,> 100 µM
same,TGI,LOX IMVI melanoma,> 100 µM
same,GI50,COLO 205 colon,64.9 µM
same,TGI,COLO 205 colon,> 100 µM
same,GI50,DU-145 prostate,> 100 µM
same,TGI,DU-145 prostate,> 100 µM
same,GI50,HT29 colon,75.5 µM
same,TGI,HT29 colon,> 100 µM
same,GI50,CCRF-CEM leukemia,8.73 µM
same,TGI,CCRF-CEM leukemia,> 100 µM
same,GI50,UACC-257 melanoma,63.3 µM
same,TGI,UACC-257 melanoma,> 100 µM
same,GI50,HOP-62 NSCLC,63.4 µM
same,TGI,HOP-62 NSCLC,> 100 µM
same,GI50,SF-539 CNS,82.1 µM
same,TGI,SF-539 CNS,> 100 µM
same,GI50,NCI-H522 lung,16.2 µM
same,TGI,NCI-H522 lung,> 100 µM
same,GI50,SNB-75 CNS,25.4 µM
same,TGI,SNB-75 CNS,> 100 µM
same,GI50,HCT-15 colon,> 100 µM
same,TGI,HCT-15 colon,> 100 µM
same,GI50,SK-OV-3 ovarian,65 µM
same,TGI,SK-OV-3 ovarian,> 100 µM
same,GI50,PC-3 prostate,> 100 µM
same,TGI,PC-3 prostate,> 100 µM
same,GI50,M14 melanoma,28.8 µM
same,TGI,M14 melanoma,> 100 µM
same,GI50,SN12C renal,20.8 µM
same,TGI,SN12C renal,> 100 µM
same,GI50,786-0 renal,23.6 µM
same,TGI,786-0 renal,> 100 µM
same,GI50,TK-10 renal,> 100 µM
same,TGI,TK-10 renal,> 100 µM
same,GI50,MALME-3M melanoma,4.11 µM
same,TGI,MALME-3M melanoma,> 100 µM
same,GI50,SNB-19 CNS,> 100 µM
same,TGI,SNB-19 CNS,> 100 µM
same,GI50,HOP-92 NSCLC,14.6 µM
same,TGI,HOP-92 NSCLC,> 100 µM
same,GI50,SR leukemia,1.63 µM
same,TGI,SR leukemia,3.2 µM

# — PubChem BioAssay (NCI)
